Like-named read-outs stand apart in the source and are kept apart here.
What was measured:
Format in all cases: cell-based
Mouse splenocytes = experiment: Mouse Splenocyte Assay, cytokine release (HTRF); conditions: 24 hours, mIL6 in supernatant; for EC50: Splenocyte, read-out: Splenocyte IL6 EC50
Outline: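 Splenocytes from female balb/c nude mice, thawed, 100,000 per well in RPMI + 10% FBS. Exposed for 24 h at 37 °C to a 4-fold 11-point compound titration from 15 μM; supernatant mIL6 and mTNFα measured by HTRF.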

[1] = tested on: Human peripheral blood mononuclear cells (PBMCs); experiment: Human PBMC Assay, cytokine release (HTRF); conditions: PBMC, 24 hours
Outline: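 Cryopreserved human PBMCs, rested overnight with 10 ng/ml hIL3, then 300,000 cells/well treated 24 h at 37° C with compound (4-fold, 11-point titration from 15 μM) in RPMI+10% FBS. Supernatant hIL6, hTNFα and hIFNα measured by HTRF; growth medium as negative control.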

hTLR7 = target: T1, hTLR7 (Homo sapiens, UniProt Q9NYK1); experiment: Reporter Gene Assay (RGA), HEK-Blue hTLR7 reporter cells, SEAP readout; conditions: overnight incubation, SEAP absorbance 620 nm
T1 construct: host or cells: HEK-Blue hTLR7 reporter cells (HEK293-derived, own knowledge)
T1 sequence (Q9NYK1 27-1049): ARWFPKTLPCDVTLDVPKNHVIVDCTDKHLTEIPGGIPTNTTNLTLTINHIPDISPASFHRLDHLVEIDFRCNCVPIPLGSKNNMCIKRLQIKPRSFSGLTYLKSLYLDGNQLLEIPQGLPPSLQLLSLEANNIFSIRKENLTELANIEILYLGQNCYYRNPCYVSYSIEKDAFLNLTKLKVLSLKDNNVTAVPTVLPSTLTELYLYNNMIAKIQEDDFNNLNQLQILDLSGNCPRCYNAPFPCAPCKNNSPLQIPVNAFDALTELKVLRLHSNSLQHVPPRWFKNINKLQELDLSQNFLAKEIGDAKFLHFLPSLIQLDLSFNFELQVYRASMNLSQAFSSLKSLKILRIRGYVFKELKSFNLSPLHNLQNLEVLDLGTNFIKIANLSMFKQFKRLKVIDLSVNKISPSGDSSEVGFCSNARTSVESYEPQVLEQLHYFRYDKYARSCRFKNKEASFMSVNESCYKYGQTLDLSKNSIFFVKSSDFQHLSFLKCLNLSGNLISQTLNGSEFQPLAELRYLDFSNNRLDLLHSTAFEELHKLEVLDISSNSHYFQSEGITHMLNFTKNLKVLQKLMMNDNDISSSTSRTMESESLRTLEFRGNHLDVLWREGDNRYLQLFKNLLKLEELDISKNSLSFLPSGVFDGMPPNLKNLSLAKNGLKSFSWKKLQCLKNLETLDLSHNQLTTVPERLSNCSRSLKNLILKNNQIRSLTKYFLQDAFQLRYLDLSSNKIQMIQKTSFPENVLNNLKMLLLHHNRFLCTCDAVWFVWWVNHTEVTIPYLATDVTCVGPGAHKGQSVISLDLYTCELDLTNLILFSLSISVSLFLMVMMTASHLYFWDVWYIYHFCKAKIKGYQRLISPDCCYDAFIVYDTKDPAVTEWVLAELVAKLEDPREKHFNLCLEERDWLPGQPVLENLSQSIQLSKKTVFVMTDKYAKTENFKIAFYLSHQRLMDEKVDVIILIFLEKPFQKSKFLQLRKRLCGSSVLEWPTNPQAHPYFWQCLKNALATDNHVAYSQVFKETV
Outline: (§1)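 HEK-Blue reporter cells expressing human or mouse TLR7 (1.5×10^4 cells) were treated with an 11-point, 4-fold compound titration from 15 pM in HEK-Blue Detection medium. Incubation was overnight at 37° C with 5% CO2. Secreted embryonic alkaline phosphatase was read as absorbance at 620 nm.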

mTLR7 = target: T2, mTLR7 (Mus musculus, UniProt P58681); experiment: Reporter Gene Assay (RGA), HEK-Blue mTLR7 reporter cells, SEAP readout; conditions: overnight incubation, SEAP absorbance 620 nm
T2 construct: host or cells: HEK-Blue mTLR7 reporter cells (HEK293-derived, own knowledge)
T2 sequence (P58681 27-1050): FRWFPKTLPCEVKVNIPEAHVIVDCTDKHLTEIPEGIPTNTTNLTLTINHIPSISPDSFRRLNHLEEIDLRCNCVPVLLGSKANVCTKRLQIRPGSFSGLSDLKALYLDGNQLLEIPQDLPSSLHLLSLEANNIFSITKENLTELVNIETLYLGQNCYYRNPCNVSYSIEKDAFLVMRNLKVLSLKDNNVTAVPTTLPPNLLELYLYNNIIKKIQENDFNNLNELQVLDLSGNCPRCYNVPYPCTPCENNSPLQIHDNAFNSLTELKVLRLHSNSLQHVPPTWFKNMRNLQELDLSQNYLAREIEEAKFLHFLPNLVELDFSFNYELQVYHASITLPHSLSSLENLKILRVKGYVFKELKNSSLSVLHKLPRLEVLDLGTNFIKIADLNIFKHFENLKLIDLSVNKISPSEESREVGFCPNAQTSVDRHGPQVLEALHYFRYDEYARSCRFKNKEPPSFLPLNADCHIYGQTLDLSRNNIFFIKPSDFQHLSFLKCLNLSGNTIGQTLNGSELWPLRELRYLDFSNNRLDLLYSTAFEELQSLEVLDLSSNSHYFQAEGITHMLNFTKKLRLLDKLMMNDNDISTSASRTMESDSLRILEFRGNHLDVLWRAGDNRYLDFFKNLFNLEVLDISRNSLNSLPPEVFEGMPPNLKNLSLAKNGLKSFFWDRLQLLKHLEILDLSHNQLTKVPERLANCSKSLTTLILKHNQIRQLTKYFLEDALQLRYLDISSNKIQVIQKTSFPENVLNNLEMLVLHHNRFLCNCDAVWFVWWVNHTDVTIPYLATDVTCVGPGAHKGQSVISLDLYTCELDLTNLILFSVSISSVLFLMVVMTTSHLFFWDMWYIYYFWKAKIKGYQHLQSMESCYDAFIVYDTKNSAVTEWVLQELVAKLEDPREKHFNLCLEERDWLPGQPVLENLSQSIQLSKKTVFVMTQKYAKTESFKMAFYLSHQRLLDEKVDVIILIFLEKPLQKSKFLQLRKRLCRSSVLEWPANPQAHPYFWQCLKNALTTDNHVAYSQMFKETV
Outline: as §1

[2] = hIFNα in supernatant, EC50 values approximated and divided into groups, read-out: PBMC IFNa EC50
[3] = hIL6 in supernatant, read-out: PBMC IL6 EC50

| SMILES | Splenocyte IL6 EC50 (nM) (Mouse splenocytes) | EC50 [1, 2] | EC50 [1, 3] | EC50 (hTLR7) | EC50 (mTLR7) | EC50 (Mouse splenocytes) |
| --- | --- | --- | --- | --- | --- | --- |
| CCOc1nc(N)c2nc(O)n(Cc3ccc(CN4CCNCC4)nc3)c2n1 [Compound 192, 6-amino-2-ethoxy-9-((6-(piperazin-1-ylmethyl)pyridin-3-yl)methyl)-9H-purin-8-ol] | inactive | > 0.01 µM | 0.202 µM | 0.0514 µM | 0.681 µM | – |
| CCCCOc1nc(N)c2nc(O)n(Cc3ccc(CCCN4CCNCC4)cc3OC)c2n1 [Compound 173, 6-amino-2-butoxy-9-(2-methoxy-4-(3-(piperazin-1-yl)propyl)benzyl)-9H-purin-8-ol] | – | 0.001 to 0.01 µM | 1.8 µM | 0.0002 µM | 0.0006 µM | 0.005 µM |
| CCOc1nc(N)c2nc(O)n(Cc3ccc(CNCc4ccc(CN5CCOCC5)cc4)cc3OC)c2n1 [Compound 142, 6-amino-2-ethoxy-9-(2-methoxy-4-(((4-(morpholinomethyl)benzyl)amino)-methyl)benzyl)-9H-purin-8-ol] | – | < 0.0001 µM | 0.0136 µM | 0.0026 µM | 0.0146 µM | 0.0099 µM |
| CCOc1nc(N)c2nc(O)n(Cc3ccc(CN4CCC(CCN)CC4)cc3OC)c2n1 [Compound 140, 6-amino-9-(4-((4-(2-aminoethyl)piperidin-1-yl)methyl)-2-methoxybenzyl)-2-ethoxy-9H-purin-8-ol] | – | > 0.01 µM | 0.0536 µM | 0.0068 µM | 0.0348 µM | 0.179 µM |
| CCCCOc1nc(N)c2nc(O)n(Cc3ccc(N4CCC(N)CC4)cc3OC)c2n1 [Compound 170, 6-amino-9-(4-(4-aminopiperidin-1-yl)-2-methoxybenzyl)-2-butoxy-9H-purin-8-ol] | – | > 0.01 µM | 1.47 µM | 0.001 µM | 0.002 µM | 0.0517 µM |
| CCCCCNc1nc(N)c2nc(O)n(Cc3ccc(CN4CCC(N)CC4)cc3)c2n1 [Compound 188, 6-amino-9-(4-((4-aminopiperidin-1-yl)methyl)benzyl)-2-(pentylamino)-9H-purin-8-ol] | – | 0.001 to 0.01 µM | 0.0196 µM | 0.351 µM | 0.0262 µM | 0.198 µM |
| CCCCOc1nc(N)c2nc(O)n(Cc3ccc(CN4CCC(CCN)CC4)cc3OC)c2n1 [Compound 158, 6-amino-9-(4-((4-(2-aminoethyl)piperidin-1-yl)methyl)-2-methoxybenzyl)-2-butoxy-9H-purin-8-ol] | – | 0.001 to 0.01 µM | – | 0.0001 µM | 0.0001 µM | 0.0032 µM |
| CCCCOc1nc(N)c2nc(O)n(Cc3ccc(N4CCNCC4)nc3)c2n1 [Compound 167, 6-amino-2-butoxy-9-((6-(piperazin-1-yl)pyridin-3-yl)methyl)-9H-purin-8-ol] | – | > 0.01 µM | 2.03 µM | 0.0005 µM | 0.0053 µM | 0.018 µM |
| CCCCOc1nc(N)c2nc(O)n(Cc3ccc(CN)cc3OC)c2n1 [Compound 162, 6-amino-9-(4-(aminomethyl)-2-methoxybenzyl)-2-butoxy-9H-purin-8-ol] | – | 0.001 to 0.01 µM | – | 0.0017 µM | 0.0023 µM | 0.0013 µM |
| CCOc1nc(N)c2nc(O)n(Cc3ccc(CN(CC)CC)cc3OC)c2n1 [Compound 102, 6-amino-9-(4-((diethylamino)methyl)-2-methoxybenzyl)-2-ethoxy-9H-purin-8-ol] | – | < 0.0001 µM | 0.0691 µM | 0.002 µM | 0.005 µM | 0.0997 µM |
| CCCCCNc1nc(N)c2nc(O)n(Cc3ccc(CNCCN4CCNCC4)cc3)c2n1 [Compound 195, 6-amino-2-(pentylamino)-9-(4-(((2-(piperazin-1-yl)ethyl)amino)methyl)-benzyl)-9H-purin-8-ol] | – | – | 0.791 µM | 1.75 µM | 0.127 µM | 1.01 µM |
| CCOc1nc(N)c2nc(O)n(Cc3ccc(CNCCCN4CCN(CCCN)CC4)cc3OC)c2n1 [Compound 104, 6-amino-9-(4-(((3-(4-(3-aminopropyl)piperazin-1-yl)propyl)amino)methyl)-2-methoxybenzyl)-2-ethoxy-9H-purin-8-ol] | – | > 0.01 µM | 0.598 µM | 1.31 µM | 1.03 µM | 1.36 µM |
| CCCC(CO)Oc1nc(N)c2nc(O)n(Cc3ccc(CN)cc3)c2n1 (stereo not drawn) [Compound 182, 6-amino-9-(4-(aminomethyl)benzyl)-2-((1-hydroxypentan-2-yl)oxy)-9H-purin-8-ol] | – | > 0.01 µM | 5.22 µM | 0.0021 µM | 0.0059 µM | 0.0024 µM |
| CCCCOc1nc(N)c2nc(O)n(Cc3ccc(CNC)cc3OC)c2n1 [Compound 163, 6-amino-2-butoxy-9-(2-methoxy-4-((methylamino)methyl)benzyl)-9H-purin-8-ol] | – | < 0.0001 µM | – | 0.0007 µM | 0.0033 µM | 0.0029 µM |
